Test results reported in patent US9731001B2, “Three-dimensional cavities of dendritic cell immunoreceptor (DCIR), compounds binding thereto and therapeutic applications related to inhibition of human immunodeficiency virus type-1 (HIV-1)” (priority 2011, dated 2017).

Assays:
Format in all cases: cell-based
HIV-1 (NL4-3) = experiment: HIV-1 infection assay on Raji-CD4 and Raji-CD4-DCIR cells (p24 in supernatant); conditions: Raji-CD4 vs Raji-CD4-DCIR, NL4-3 2 h, culture 3 d
Procedure: FIG. 5 is a bar graph showing that specific inhibitors against the site A (A1, A4) and site B (B1, B2) decrease infectivity of Raji-CD4-DCIR. Raji-CD4 and Raji-CD4-DCIR were treated with the inhibitors selected following experiments described in FIG. 4, or DMSO. Cells were then exposed to NL4-3 for 2 h, rinsed and maintained in culture for 3d. Cell-free culture supernatants were collected and assayed for p24 content. Data shown correspond to the means±SEM from 3 independent experiments performed with triplicate samples. The asterisk (*) denotes statistically significant data (*, P<0.05, ** P<0.01, *** P<0.001).
(§1) Where indicated, 1×10^6 parental Raji-CD4 cells (DCIR-negative), Raji-CD4-DCIR or Raji-DC-SIGN transfectants were pre-treated with the indicated amount of a chemical inhibitor for 10 min. Cells were then pulsed with NL4-3 (an equivalent of 100 ng of p24) for 60 min at 37° C. The virus-cell mixture was then washed three times with PBS to remove unbound virus and re-suspended in PBS containing 1% BSA. Binding/entry was then determined by the p24 content by ELISA as above. For the infection assay, Raji-CD4 and Raji-CD4-DCIR (1×10^6 cells) were exposed to NL4-3 viral stock (100 ng of p24) for 2 h at 37° C. After three washes with PBS to remove excess virus, cells were maintained in culture for up to 9 days. Cell-free culture supernatants were collected at the indicated time points and assayed for p24 content.

HIV-1 (NL4-3/Balenv) [1] = experiment: HIV-1 infection assay on iMDDCs (p24 in supernatant); conditions: IM-MDDCs, NL4-3balenv 2 h, culture up to 9 days
Procedure: (§2) FIG. 7 is bar graphs showing that selected site A and site B inhibitors decrease HIV-1 binding and infection of IM-MDDCs. Upper panel: IM-MDDCs were treated with two chemical inhibitors directed against site A (A1 and A4) and two inhibitors directed against site B (B1 and B2) (or DMSO) for 10 min at 37° C. Next, cells were pulsed with NL4-3balenv for 60 min at 37° C. and rinsed extensively before measuring p24 content. Lower panel: In some experiments, similarly treated IM-MDDCs were pulsed with NL4-3balenv for 2 h at 37° C., rinsed extensively, and maintained in complete culture medium supplemented with GM-CSF and IL-4 for up to 9 days with medium replenishment every 3 days. Cell-free culture supernatants were quantified by measuring p24 content. Data shown correspond to the means±SEM of 3 independent experiments performed in triplicate. The asterisks denotes statistically significant data (*, P<0.05; **, P<0.01; ***, P<0.001).
(§3) For assessing binding/entry, iMDDCs (3×10^5 cells in a final volume of 300 μl) were pre-treated with 10 μM of different chemical inhibitors for 10 min and exposed to NL4-3/Balenv (30 ng of p24) for 60 min at 37° C. After three washes with PBS, cells were re-suspended in PBS containing 1% BSA. The p24 content was determined by ELISA, while susceptibility of iMDDCs to HIV-1 infection was assessed by initially exposing 3×10^5 cells to NL4-3/Balenv (30 ng) at 37° C. for 2 h. After three washes with PBS, cells were maintained in complete RPMI 1640 supplemented with GM-CSF and IL-4 in 96-well plates, in a final volume of 200 μl. Every 3 days and for a 9-day period, half of the conditioned medium was collected and kept at −20° C. until assayed. Virus production was estimated as above by measuring p24 levels by ELISA.

HIV-1 (NL4-3/Balenv) [2] = experiment: HIV-1 binding assay on iMDDCs (p24); conditions: IM-MDDCs, 10 μM pre-incubation 10 min, NL4-3balenv 60 min
Procedure: as §2, §3

DC-SIGN = molecular target: T1, DC-SIGN (Homo sapiens, UniProt Q9NNX6); experiment: HIV-1 binding to Raji-DC-SIGN cells (p24); conditions: NL4-3 60 min
T1 construct: expressed in transfected cells; host or cells: Raji cells stably transfected with a DC-SIGN plasmid
T1 sequence (Q9NNX6 1-404): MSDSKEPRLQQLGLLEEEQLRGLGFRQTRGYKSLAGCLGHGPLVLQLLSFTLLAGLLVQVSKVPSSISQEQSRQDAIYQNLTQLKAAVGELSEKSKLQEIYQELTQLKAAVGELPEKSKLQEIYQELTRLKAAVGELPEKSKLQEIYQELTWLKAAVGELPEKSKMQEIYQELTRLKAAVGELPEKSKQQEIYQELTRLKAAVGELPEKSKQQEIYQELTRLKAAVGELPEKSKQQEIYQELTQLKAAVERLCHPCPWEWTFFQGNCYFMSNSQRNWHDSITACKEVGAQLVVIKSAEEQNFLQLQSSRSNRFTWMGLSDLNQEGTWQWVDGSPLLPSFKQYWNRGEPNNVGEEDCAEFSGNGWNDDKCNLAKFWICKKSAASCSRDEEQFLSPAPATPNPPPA
Procedure: Raji-DC-SIGN cells were treated for 10 min at 37° C. with inhibitors A1 and A4 directed against the site A and B1 and B2 directed against the site B, or with DMSO. Afterwards, cells were pulsed with NL4-3 for 60 min, rinsed thrice with PBS were made to remove unadsorbed virus, and cell-associated viruses were quantified by measuring p24 content. Data shown correspond to the means±SEM of 3 independent experiments performed in triplicate.
as §1

DCIR = molecular target: T2, DCIR (Homo sapiens, UniProt Q9UMR7); experiment: HIV-1 binding/entry assay on Raji-CD4-DCIR cells (cell-associated p24); conditions: 10 μM pre-treatment 10 min; NL4-3 60 min; p24 content
T2 construct: expressed in transfected cells; host or cells: Raji-CD4 (human B cell line stably expressing human CD4), retroviral transduction
T2 sequence (Q9UMR7 1-237): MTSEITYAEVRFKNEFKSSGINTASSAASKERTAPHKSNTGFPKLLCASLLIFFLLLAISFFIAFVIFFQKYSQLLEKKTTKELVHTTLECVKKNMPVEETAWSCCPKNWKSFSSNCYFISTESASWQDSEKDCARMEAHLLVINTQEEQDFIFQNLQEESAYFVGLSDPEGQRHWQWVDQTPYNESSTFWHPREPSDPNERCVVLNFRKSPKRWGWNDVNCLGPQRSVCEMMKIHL
Procedure: FIG. 4 is a bar graph showing that inhibitors decrease HIV-1 binding on DCIR. Raji-CD4-DCIR cells were treated with 10 μM of four site A inhibitors (A1, A2, A3 and A4) and three site B inhibitors (B1, B2 and B3) (or with vehicle (DMSO) only) for 10 min at 37° C. Thereafter, cells were pulsed with NL4-3 for 60 min. After three washes with PBS to remove unadsorbed virus, the abundance of cell-associated viruses was quantified by measuring p24 content. Data shown correspond to the means±SEM of three independent experiments performed with triplicate samples. The asterisk (*) denotes statistically significant data (*, P<0.05, ** P<0.01, *** P<0.001).
as §1

For c1ccc(-c2ccc(-c3ccccn3)nn2)nc1 [Compound A4, 3,6-di-2 pyridinylpyridazine], the HIV-1 production (HIV-1 (NL4-3)) was “decreased HIV-1 production only in DCIR-expressing cells”, the “productive infection of DCs” value (HIV-1 (NL4-3/Balenv) [1]) was “blocked productive infection” and the “HIV-1 binding to DCs” value (HIV-1 (NL4-3/Balenv) [2]) was “decreased significantly”. For the same compound, the “HIV-1 binding to DC-SIGN” value (DC-SIGN) was “do not block HIV-1 attachment to DC-SIGN” and the “HIV-1 attachment to Raji-CD4-DCIR cells” value (DCIR) was “statistically significant decrease”.
